Reference: ChEMBL document CHEMBL1131525, “Synthesis and anti-inflammatory activity of chalcone derivatives” (Bioorg Med Chem Lett, 1998)
pIC50: −log10 of the molar value.

Key:
[1] = target: T1, Polyunsaturated fatty acid 5-lipoxygenase (Homo sapiens, UniProt P09917); experiment: (§1) Inhibitory concentration required against 5-lipoxygenase activity in cytosolic fractions of human neutrophils
T1 sequence (P09917 whole entry): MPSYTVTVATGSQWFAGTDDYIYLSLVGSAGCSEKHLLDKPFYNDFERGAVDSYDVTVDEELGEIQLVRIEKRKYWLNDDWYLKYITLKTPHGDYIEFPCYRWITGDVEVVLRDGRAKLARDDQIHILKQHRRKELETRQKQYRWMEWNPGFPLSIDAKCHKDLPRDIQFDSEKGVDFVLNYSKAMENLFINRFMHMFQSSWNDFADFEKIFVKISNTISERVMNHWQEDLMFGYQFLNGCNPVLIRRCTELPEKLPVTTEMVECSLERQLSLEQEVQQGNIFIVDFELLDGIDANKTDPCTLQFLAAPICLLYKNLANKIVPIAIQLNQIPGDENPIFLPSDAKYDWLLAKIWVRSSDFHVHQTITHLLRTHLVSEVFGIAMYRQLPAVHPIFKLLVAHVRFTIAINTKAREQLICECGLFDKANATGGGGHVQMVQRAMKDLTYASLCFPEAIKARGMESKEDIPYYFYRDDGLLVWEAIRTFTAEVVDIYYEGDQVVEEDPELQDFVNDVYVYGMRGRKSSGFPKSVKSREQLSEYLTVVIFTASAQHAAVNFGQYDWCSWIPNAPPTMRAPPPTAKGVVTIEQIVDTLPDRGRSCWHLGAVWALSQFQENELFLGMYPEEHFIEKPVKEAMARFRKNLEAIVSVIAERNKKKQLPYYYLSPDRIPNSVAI

[2] = target: T2, Prostaglandin G/H synthase 2 (Homo sapiens) (UniProt P35354); experiment: Inhibition of COX-2 activity in intact human monocytes; type: cell-based; set-up: concentration or dose not given beside the values; settings: concentration not given here
T2 sequence (whole entry): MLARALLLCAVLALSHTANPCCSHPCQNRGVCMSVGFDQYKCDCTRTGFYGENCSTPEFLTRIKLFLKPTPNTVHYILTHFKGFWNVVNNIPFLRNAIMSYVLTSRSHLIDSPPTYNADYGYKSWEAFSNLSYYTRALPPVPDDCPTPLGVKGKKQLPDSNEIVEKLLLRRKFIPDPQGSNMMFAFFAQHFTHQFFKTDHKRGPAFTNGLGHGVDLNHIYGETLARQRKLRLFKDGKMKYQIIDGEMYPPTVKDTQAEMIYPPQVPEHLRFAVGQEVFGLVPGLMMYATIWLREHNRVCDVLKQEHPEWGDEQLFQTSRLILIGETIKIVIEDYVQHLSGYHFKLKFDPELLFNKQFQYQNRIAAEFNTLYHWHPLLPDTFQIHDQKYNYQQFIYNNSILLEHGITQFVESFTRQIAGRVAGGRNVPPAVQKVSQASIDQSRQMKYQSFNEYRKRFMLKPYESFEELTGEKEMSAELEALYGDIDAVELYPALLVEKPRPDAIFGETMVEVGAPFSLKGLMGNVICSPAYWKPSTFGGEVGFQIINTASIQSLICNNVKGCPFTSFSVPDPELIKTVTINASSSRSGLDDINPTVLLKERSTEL

[3] = organism: Homo sapiens; experiment: (§2) […] required for elastase release in stimulated human neutrophils; type: functional
[4] = system: Mus musculus; experiment: In vivo inhibition of compound required for migration of neutrophils into the mouse pouch at the dose of 100 nmol/pouch; type: functional
[5] = system: Mus musculus; experiment: In vivo inhibition of compound required to inhibit LTB4 levels in zymosan treated mouse air pouch at a dose of 100 nmol/pouch; type: functional
[6] = system: Mus musculus; experiment: In vivo inhibition of compound required to inhibit PGE-2 levels in zymosan treated mouse air pouch at a dose of 100 nmol/pouch; type: functional
[7] = system: Mus musculus; experiment: In vivo inhibition of compound required to inhibit TNF-alpha levels in zymosan treated mouse air pouch at a dose of 100 nmol/pouch; type: functional
[8] = organism: Homo sapiens; experiment: (§3) Inhibitory concentration required for LTB4 synthesis in stimulated human neutrophils; type: functional
[9] = organism: Homo sapiens; experiment: as §3; type: functional, organism-based
[10] = target: T3, Polyunsaturated fatty acid 5-lipoxygenase (Homo sapiens) (UniProt P09917); experiment: as §1; settings: concentration not given here
T3 sequence (whole entry): T1 sequence (P09917 whole entry)

[11] = organism: Homo sapiens; experiment: as §2; type: functional; set-up: concentration or dose not given beside the values
[12] = target: T1, Polyunsaturated fatty acid 5-lipoxygenase; experiment: Inhibitory concentration required against 5-lipoxygenase activity in intact cells of human neutrophils; type: cell-based
[13] = organism: Homo sapiens; experiment: Inhibitory concentration required for scavenging of superoxide anion generated by stimulated human neutrophils; type: functional
[14] = Inhibitory concentration required for scavenging of superoxide anion generated by hypoxanthine / xanthine oxidase system; type: functional

Cc1coc(C)c1C(=O)/C=C/c1cc2ccccc2nc1Cl gave a pIC50 [1] of 5.46, an inhibition [2] of 0% and a pIC50 [3] of 5.08. For the same compound, the Inhibition [4] was 47.1%, the Inhibition [5] was 19.5% and the Inhibition [6] was 56.8%. It also gave an Inhibition [7] of 34.4% and an Inhibition [8] of 53.5%.
In the case of O=C(/C=C/c1cc2ccccc2nc1Cl)c1ccc(F)cc1, the pIC50 [1] was 5.41, the inhibition [2] was 36.3% and the pIC50 [3] was 5.52. It also gave an Inhibition [4] of 36.6%, an Inhibition [5] of 18.5% and an Inhibition [6] of 58.3%. It also gave an Inhibition [7] of 0% and a pIC50 [9] of 5.21.
COc1cc2cc(/C=C/C(=O)c3ccccc3)c(Cl)nc2cc1OC gave an inhibition [10] of 42%, an inhibition [2] of 0% and an Inhibition [4] of 0%. It also gave an Inhibition [5] of 0%, an Inhibition [6] of 29.9% and an Inhibition [7] of 35.7%. The Inhibition [11] was 0% and the Inhibition [8] was 42.2%.
Compound COc1cc2cc(/C=C/C(=O)c3ccc(C)cc3)c(Cl)nc2cc1OC has an inhibition [10] of 61%, an inhibition [2] of 0% and an Inhibition [4] of 38.6%. For the same compound, the Inhibition [5] was 15.2%, the Inhibition [6] was 59.5% and the Inhibition [7] was 11.2%. For the same compound, the Inhibition [11] was 40.7% and the pIC50 [9] was 5.01.
CCn1c(=O)ccc2cc(COc3cc(F)cc(C4(OC)CCOCC4)c3)ccc21 showed a pIC50 [1] of 7.05 and a pIC50 [12] of 7.22.
O=C(/C=C/c1cc2ccccc2nc1Cl)c1ccc(C(F)(F)F)cc1 showed an inhibition [10] of 32.9%, an inhibition [2] of 35.6% and an Inhibition [4] of 39.7%. It also gave an Inhibition [5] of 13%, an Inhibition [6] of 46.5% and an Inhibition [7] of 24.5%. The Inhibition [11] was 0% and the Inhibition [8] was 36.9%.
O=C(/C=C/c1ccco1)c1ccc(Cl)c(Cl)c1 gave a pIC50 [1] of 5.39, an inhibition [2] of 0% and a pIC50 [3] of 5.27. For the same compound, the Inhibition [4] was 47.3%, the Inhibition [5] was 0% and the Inhibition [6] was 71%. For the same compound, the Inhibition [7] was 0% and the pIC50 [9] was 5.32.
In the case of COc1cccc(/C=C/C(=O)c2ccc(Br)cc2)c1OC, the pIC50 [1] was 5.21, the inhibition [2] was 0% and the pIC50 [3] was 5.66. For the same compound, the Inhibition [4] was 35.7%, the Inhibition [5] was 40% and the Inhibition [6] was 62%. For the same compound, the Inhibition [7] was 44% and the pIC50 [9] was 5.17.
O=C(/C=C/c1cc2ccccc2nc1Cl)c1cccnc1 showed an inhibition [10] of 30.2%, an inhibition [2] of 46.6% and an Inhibition [4] of 53%. For the same compound, the Inhibition [5] was 30.7%, the Inhibition [6] was 69.5% and the Inhibition [7] was 12.1%. For the same compound, the Inhibition [11] was 0% and the Inhibition [8] was 26.4%.
For COc1ccc(C(=O)/C=C/c2cc3ccccc3nc2Cl)c(OC)c1, the inhibition [10] was 27.6%, the inhibition [2] was 41.8% and the Inhibition [4] was 0%. It also gave an Inhibition [5] of 11.1%, an Inhibition [6] of 36.2% and an Inhibition [7] of 52.1%. For the same compound, the Inhibition [11] was 0% and the Inhibition [8] was 10.7%.
For COc1ccc(C(=O)/C=C/c2ccc(N(C)C)cc2)cc1OC, the inhibition [10] was 37.9%, the inhibition [2] was 0% and the pIC50 [13] was 7.00. It also gave an Inhibition [4] of 20.6%, an Inhibition [5] of 41.1% and an Inhibition [6] of 75.8%. The Inhibition [7] was 64.2%, the pIC50 [14] was 6.52 and the Inhibition [11] was 0%. The Inhibition [8] was 0%.
In the case of COc1ccc(C(=O)/C=C/c2ccc(C(F)(F)F)cc2)c(OC)c1, the inhibition [10] was 21.7%, the inhibition [2] was 0% and the Inhibition [4] was 0%. The Inhibition [5] was 45.9%, the Inhibition [6] was 25.5% and the Inhibition [7] was 0%. For the same compound, the Inhibition [11] was 0% and the Inhibition [8] was 35.4%.
COc1ccc(C(=O)/C=C/c2cc3ccccc3nc2Cl)cc1 gave an inhibition [10] of 42.3%, an inhibition [2] of 30% and an Inhibition [4] of 20.4%. It also gave an Inhibition [5] of 20.9%, an Inhibition [6] of 23.2% and an Inhibition [7] of 0%. The Inhibition [11] was 0% and the Inhibition [8] was 30.2%.
Work on COc1cc(/C=C/C(=O)c2cc(OC)c(OC)c(OC)c2)cc(OC)c1OC yielded an inhibition [10] of 14.6%, an inhibition [2] of 0% and an Inhibition [4] of 35%. The Inhibition [5] was 27.5%, the Inhibition [6] was 0% and the Inhibition [7] was 25.7%. It also gave an Inhibition [11] of 0% and an Inhibition [8] of 21.1%.
